Measurements as given in patent publication US9938236B2, “Antiviral agents against HBV infection” (DREXEL UNIVERSITY, priority 2012, dated 2018).

Legend:
HBV [1] = assay: Antiviral activity in AML12HBV10 cells (HBV DNA dot-blot hybridization); format: cell-based; conditions: Hepatitis B virus, Table 33, scaffold (XIV) drawing 940, 48 hours
Procedure: The antiviral efficacy of the compounds of the disclosure, as presented in Tables 21 through 39 were determined in AML12HBV10 cells. AML12HBV10 is an immortalized murine hepatocyte (AML12)-derived stable cell line that supports robust HBV replication in a tetracycline inducible manner (Xu et al.). The cells were seeded into 96 well plates at a density of 2×10^4 cells per well and cultured in DMEM/F12 media with 10% fetal bovine serum in the absence of tetracycline to allow pgRNA transcription and HBV DNA replication. One day after seeding, cells were left untreated or treated with a serial dilution of testing compounds, ranging from 50 μM to 0.39 μM, for 48 hours. Cells were then lysed by adding into each well of 100 μl lysis buffer containing 10 mM Tris-HCl (pH 7.6), 1 mM EDTA, 100 mM NaCl and 1% NP-40 and incubated at 37° C. for 30 minutes. Half amount (50 μl) of cell lysate from each well was combined with equal volume of denaturing solution containing 0.5N NaOH and 1.5M NaCl. After 5 minute incubation, 100 μl of neutralization solution (1M Tris-HCl, pH 7.4, 1.5M NaCl) was added into each well. The denatured cell lysates (totally 200 μl) were applied onto Nylon membrane using 96-well dot-blot manifold (Biorad). HBV DNA in the cell lysates were determined by dot-blot hybridization with alpha-^32P-UTP-labelled riboprobe specific for HBV minus strand DNA.

HBV [2] = assay: Antiviral activity in HepDES19 cells (core-associated HBV DNA, Southern blot hybridization); format: cell-based; conditions: Hepatitis B virus, 144 h, Table 33, scaffold (XIV) drawing 940, 6 days
Procedure: Two days after seeding, the cells were mock-treated or treated with a serial dilution of compounds of the disclosure, ranging from 10 μM to 0.018 μM, for 6 days in the absence of tetracycline. Upon the completion of treatment, cells were lysed by adding into each well of the 12-well plates 0.5 ml of lysis buffer containing 10 mM Tris-HCl (pH 8.0), 1 mM EDTA, 1% NP40 and 2% sucrose and incubating at 37° C. for 10 minutes. Cell debris and nuclei were removed by centrifugation and the supernatant was mixed with 130 μl of 35% polyethylene glycol (PEG) 8000 containing 1.5 M NaCl. After 1 hour incubation in ice, viral nucleocapsids were pelleted by centrifugation at 6,000×g for 5 min at 4° C., followed by 1 hour digestion at 37° C. in 400 μl of digestion buffer containing 0.5 mg/ml pronase (Calbiochem), 0.5% SDS, 150 mM NaCl, 25 mM Tris-HCl (pH 8.0) and 10 mM EDTA. The digestion mixture was extracted twice with phenol and DNA was precipitated with ethanol, dissolved in TE buffer (10 mM Tris-HC 1, pH 8.0; 0.1 mM EDTA). One half of the DNA sample from each well was resolved by electrophoresis into a 1.5% agarose gel. The gel was then subjected to denaturation in a solution containing 0.5 M NaOH and 1.5 M NaCl, followed by neutralization in a buffer containing 1 M Tris-HCl (pH7.4) and 1.5 M NaCl. DNA was then blotted onto Hybond-XL membrane (GE Health care) in 20×SSC buffer.

Work on `CC(C)[C@@H](C)NS(=O)(=O)c1ccc(Cl)c(C(=O)Nc2ccc(F)c(F)c2)c1` [XIV: A=H, B=Cl, C=H, D=H, (R)-2-chloro-N-(3,4-Difluorophenyl)-5-(N-(3-methylbutan-2-yl)sulfamoyl)benzamide] yielded an EC50 (HBV [1]) of less than 1 µM.
For `CC(C)[C@@H](C)NS(=O)(=O)c1cc(C(=O)Nc2ccc(F)c(F)c2)c(F)cc1F` [XIV: A=H, B=F, C=H, D=F, (R)-N-(3,4-Difluorophenyl)-2,4-difluoro-5-(N-(3-methylbutan-2-yl)sulfamoyl)benzamide], the EC50 (HBV [1]) was 1 to 5 µM.
`Cc1ccc(S(=O)(=O)N[C@H](C)C(C)C)cc1C(=O)Nc1ccc(F)c(F)c1` [XIV: A=H, B=Me, C=H, D=H, (R)-N-(3,4-Difluorophenyl)-2-methyl-5-(N-(3-methylbutan-2-yl)sulfamoyl)benzamide] showed an EC50 (HBV [1]) of less than 1 µM and an EC50 (HBV [2]) of less than 1 µM.
With `COc1ccc(S(=O)(=O)N[C@H](C)C(C)C)cc1C(=O)Nc1ccc(F)c(F)c1` [XIV: A=H, B=OMe, C=H, D=H, (R)-N-(3,4-Difluorophenyl)-2-methoxy-5-(N-(3-methylbutan-2-yl)sulfamoyl)benzamide] the EC50 (HBV [1]) was less than 1 µM and the EC50 (HBV [2]) was less than 1 µM.
